From ChEMBL document CHEMBL1153827, “Novel aminopeptidase N inhibitors derived from antineoplaston AS2-5 (Part II)” (Bioorg Med Chem, 2009) come the findings set out here.

The target in one experiment is T1, Aminopeptidase N (Sus scrofa, UniProt P15145).
T1 sequence (P15145 whole entry): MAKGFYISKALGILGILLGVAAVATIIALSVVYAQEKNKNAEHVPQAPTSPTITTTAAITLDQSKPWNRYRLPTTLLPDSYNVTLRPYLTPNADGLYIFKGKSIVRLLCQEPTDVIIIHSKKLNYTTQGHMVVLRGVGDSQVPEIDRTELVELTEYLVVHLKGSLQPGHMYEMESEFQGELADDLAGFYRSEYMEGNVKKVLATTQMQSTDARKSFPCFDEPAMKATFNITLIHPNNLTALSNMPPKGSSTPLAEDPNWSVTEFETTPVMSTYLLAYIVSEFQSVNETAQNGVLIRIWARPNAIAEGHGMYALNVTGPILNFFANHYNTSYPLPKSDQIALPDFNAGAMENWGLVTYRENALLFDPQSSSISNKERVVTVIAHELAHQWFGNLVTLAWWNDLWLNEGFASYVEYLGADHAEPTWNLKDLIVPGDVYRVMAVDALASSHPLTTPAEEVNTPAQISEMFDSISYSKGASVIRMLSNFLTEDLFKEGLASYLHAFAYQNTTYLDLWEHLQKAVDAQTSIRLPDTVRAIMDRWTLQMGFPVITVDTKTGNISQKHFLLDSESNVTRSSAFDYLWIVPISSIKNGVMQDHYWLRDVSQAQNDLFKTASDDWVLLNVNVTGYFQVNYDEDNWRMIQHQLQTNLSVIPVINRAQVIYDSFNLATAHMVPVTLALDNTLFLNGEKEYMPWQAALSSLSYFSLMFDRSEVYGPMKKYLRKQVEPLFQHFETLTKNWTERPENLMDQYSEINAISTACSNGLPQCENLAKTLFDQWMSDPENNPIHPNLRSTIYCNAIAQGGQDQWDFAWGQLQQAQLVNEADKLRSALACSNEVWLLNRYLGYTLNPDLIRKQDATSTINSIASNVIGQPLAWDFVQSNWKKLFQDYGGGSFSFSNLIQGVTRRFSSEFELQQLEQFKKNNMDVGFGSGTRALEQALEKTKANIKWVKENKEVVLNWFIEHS
The experiment in a line: Inhibition of pig kidney microsomal aminopeptidase N after 30 mins by UV-VIS spectrophotometry.

Experiment [1] has as its target 72 kDa type IV collagenase (Homo sapiens, UniProt P08253). The experiment in a line: Inhibition of MMP2.

72 kDa type IV collagenase, sequence (P08253 whole entry): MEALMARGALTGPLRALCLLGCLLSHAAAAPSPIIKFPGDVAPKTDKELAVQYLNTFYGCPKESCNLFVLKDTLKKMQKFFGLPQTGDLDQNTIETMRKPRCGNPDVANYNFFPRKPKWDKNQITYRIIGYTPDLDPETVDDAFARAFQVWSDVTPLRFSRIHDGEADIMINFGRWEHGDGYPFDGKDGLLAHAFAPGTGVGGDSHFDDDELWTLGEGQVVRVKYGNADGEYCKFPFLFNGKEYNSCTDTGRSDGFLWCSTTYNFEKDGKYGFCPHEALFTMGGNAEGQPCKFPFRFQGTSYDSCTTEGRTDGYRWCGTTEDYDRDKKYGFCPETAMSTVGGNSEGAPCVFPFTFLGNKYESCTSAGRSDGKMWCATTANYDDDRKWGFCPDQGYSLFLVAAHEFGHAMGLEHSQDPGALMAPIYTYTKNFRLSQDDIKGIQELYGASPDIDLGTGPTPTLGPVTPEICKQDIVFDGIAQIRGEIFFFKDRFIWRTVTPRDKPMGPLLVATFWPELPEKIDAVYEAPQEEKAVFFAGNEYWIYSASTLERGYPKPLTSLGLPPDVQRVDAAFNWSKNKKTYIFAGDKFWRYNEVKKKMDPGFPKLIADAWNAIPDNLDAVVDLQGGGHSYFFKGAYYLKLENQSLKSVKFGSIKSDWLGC

Broadly, the IC50 is the concentration that inhibits the measured activity by half. Turning to `COC(=O)CC(NC(=O)CC[C@H](NC(=O)/C=C/c1ccc(OC)c(OC)c1)C(=O)NC(CC(=O)OC)C(=O)OC)C(=O)OC` (stereo not given in full), the half-maximal inhibitory concentration (IC50) at Aminopeptidase N (read-out: IC50) is 213 µM; in experiment [1] (read-out: IC50), 341 µM.

As to `COc1ccc(/C=C/C(=O)N[C@@H](CCC(=O)O)C(=O)Nc2cc(F)cc(F)c2)cc1OC`, the IC50 at Aminopeptidase N (read-out: IC50) was determined as 98.6 µM; in experiment [1] (read-out: IC50), 116 µM.

Consider `COc1ccc(/C=C/C(=O)N[C@@H](CCC(=O)O)C(=O)Nc2ccccc2F)cc1OC`, for which the values for the half-inhibitory concentration (IC50) (on Aminopeptidase N (read-out: IC50); in experiment [1] (read-out: IC50)) were 56.8 µM and 71.4 µM, respectively.

With `COc1ccc(/C=C/C(=O)N[C@@H](CCC(=O)O)C(=O)Nc2ccccc2Cl)cc1OC`, the 50% inhibitory concentration (IC50) is 38.3 µM at Aminopeptidase N (read-out: IC50) and 64.3 µM in experiment [1] (read-out: IC50).

For `COc1ccc(/C=C/C(=O)N[C@@H](CCC(=O)O)C(=O)Nc2cccc(Cl)c2)cc1OC`, the half-inhibitory concentration (IC50) on Aminopeptidase N (read-out: IC50) was 80.5 µM; in experiment [1] (read-out: IC50), 121 µM.

Take `COc1ccc(/C=C/C(=O)N[C@@H](CCC(=O)O)C(=O)Nc2ccc(C)cc2)cc1OC`: the IC50 stood at 20.7 µM at Aminopeptidase N (read-out: IC50) and 37.8 µM in experiment [1] (read-out: IC50).

As for `COc1ccc(/C=C/C(=O)N[C@@H](CCC(=O)O)C(=O)Nc2ccc(F)cc2)cc1OC`, the 50% inhibitory concentration (IC50) at Aminopeptidase N (read-out: IC50) is 23.4 µM; in experiment [1] (read-out: IC50), 47.6 µM.

As to `COc1ccc(/C=C/C(=O)N[C@@H](CCC(=O)Nc2cc(F)cc(F)c2)C(=O)Nc2cc(F)cc(F)c2)cc1OC`, the half-maximal inhibitory concentration (IC50) entry (on Aminopeptidase N; in experiment [1]) was “Not Active” throughout.

As to `COc1ccc(/C=C/C(=O)N[C@@H](CCC(=O)Nc2ccc(C)cc2)C(=O)Nc2ccc(C)cc2)cc1OC`, the IC50 at Aminopeptidase N (read-out: IC50) was 335 µM; in experiment [1] (read-out: IC50) it was 398 µM.

In the case of `COc1ccc(/C=C/C(=O)N[C@@H](CCC(=O)Nc2ccc(F)cc2)C(=O)Nc2ccc(F)cc2)cc1OC`, the IC50 is 371 µM at Aminopeptidase N (read-out: IC50) and 368 µM in experiment [1] (read-out: IC50).

Take `COC(=O)CNC(=O)[C@H](CCC(=O)O)NC(=O)/C=C/c1ccc(OC)c(OC)c1`: the IC50 at Aminopeptidase N (read-out: IC50) was 50.4 µM; in experiment [1] (read-out: IC50) it was 79.6 µM.

Turning to `COC(=O)C(C)NC(=O)[C@H](CCC(=O)O)NC(=O)/C=C/c1ccc(OC)c(OC)c1` (stereo not given in full), the 50% inhibitory concentration (IC50) at Aminopeptidase N (read-out: IC50) is 55.1 µM; in experiment [1] (read-out: IC50), 83.2 µM.

For the compound `COc1ccc(/C=C/C(=O)N[C@@H](CCC(=O)O)C(=O)NCC(C)C)cc1OC`, the IC50 amounted to 207 µM on Aminopeptidase N (read-out: IC50) and 256 µM in experiment [1] (read-out: IC50).

With `COc1ccc(/C=C/C(=O)N[C@@H](CCC(=O)Nc2ccc(Cl)cc2)C(=O)Nc2ccc(Cl)cc2)cc1OC`, the figures for the IC50 (on Aminopeptidase N (read-out: IC50); in experiment [1] (read-out: IC50)) were 405 µM and 471 µM, respectively.

Consider `COc1ccc(/C=C/C(=O)N[C@@H](CCC(=O)Nc2ccc(Br)cc2)C(=O)Nc2ccc(Br)cc2)cc1OC`, for which the IC50 on Aminopeptidase N (read-out: IC50) was 578 µM; in experiment [1] it was “Not Active”.

As to `COc1ccc(/C=C/C(=O)N[C@@H](CCC(=O)Nc2ccccc2F)C(=O)Nc2ccccc2F)cc1OC`, the results for the 50% inhibitory concentration (IC50) (at Aminopeptidase N (read-out: IC50); in experiment [1] (read-out: IC50)) were 405 µM and 471 µM, respectively.

Regarding `COc1ccc(/C=C/C(=O)N[C@@H](CCC(=O)O)C(=O)NCc2ccccc2)cc1OC`, the results for the IC50 (on Aminopeptidase N (read-out: IC50); in experiment [1] (read-out: IC50)) were 178 µM and 236 µM, respectively.

`CNC(=O)[C@H](CCC(=O)O)NC(=O)/C=C/c1ccc(OC)c(OC)c1`: the half-inhibitory concentration (IC50) on Aminopeptidase N (read-out: IC50) worked out at 126 µM; in experiment [1] (read-out: IC50), 159 µM.

Consider `CCNC(=O)[C@H](CCC(=O)O)NC(=O)/C=C/c1ccc(OC)c(OC)c1`, for which the IC50 worked out at 184 µM on Aminopeptidase N (read-out: IC50) and 211 µM in experiment [1] (read-out: IC50).

Take `CCCNC(=O)[C@H](CCC(=O)O)NC(=O)/C=C/c1ccc(OC)c(OC)c1`: the IC50 on Aminopeptidase N (read-out: IC50) was found to be 237 µM; in experiment [1] (read-out: IC50), 284 µM.

On to `COC(=O)C(NC(=O)[C@H](CCC(=O)O)NC(=O)/C=C/c1ccc(OC)c(OC)c1)C(C)C` (stereo not given in full), for which the IC50 is 69.2 µM on Aminopeptidase N (read-out: IC50) and 76.8 µM in experiment [1] (read-out: IC50).

On to `COc1ccc(/C=C/C(=O)N[C@@H](CCC(=O)O)C(=O)Nc2ccc(Br)cc2)cc1OC`, for which the concentration for half-maximal inhibition (IC50) at Aminopeptidase N (read-out: IC50) came to 58.1 µM; in experiment [1] (read-out: IC50) it was 71.2 µM.

Turning to `COc1ccc(/C=C/C(=O)N[C@@H](CCC(=O)O)C(=O)Nc2ccc(Cl)cc2)cc1OC`, the half-inhibitory concentration (IC50) stood at 34.5 µM at Aminopeptidase N (read-out: IC50) and 59.9 µM in experiment [1] (read-out: IC50).

Take `COC(=O)CC(NC(=O)[C@H](CCC(=O)O)NC(=O)/C=C/c1ccc(OC)c(OC)c1)C(=O)OC` (stereo not given in full): the IC50 on Aminopeptidase N (read-out: IC50) worked out at 60.5 µM; in experiment [1] (read-out: IC50), 101 µM.

In the case of `COC(=O)C(Cc1ccc(F)cc1)NC(=O)[C@H](CCC(=O)O)NC(=O)/C=C/c1ccc(OC)c(OC)c1` (stereo not given in full), the half-maximal inhibitory concentration (IC50) at Aminopeptidase N (read-out: IC50) worked out at 43.7 µM; in experiment [1] (read-out: IC50) it was 76.5 µM.
